Test results as given in patent publication EP4768484A1, “HETEROCYCLIC FUSED RING COMPOUND, AND COMPOSITION AND USE THEREOF” (Shenzhen TargetRx, Inc., priority 2023, dated 2025).

Columns and labels:
Type in all cases: cell-based
[1] = test system: K562 cells; test: Cell growth inhibitory activity assay (CellTiter-Glo), K562 cells; details: Homo sapiens, 72 h, CTG cell viability
Protocol: (§1) In this assay, the Celltiter-Glo (CTG) kit provided by Promega was used, and it is a homogeneous cell viability assay method. The cell viability of cultured cells was measured by quantifying ATP. K562 cells were purchased from Nanjing Kebai, product number CBP60529; Ba/F3 parental cells were purchased from RIKEN BRC, product number RCB0805; other cells containing BCR-ABL1 WT, BCR-ABL1 T315I, BCR-ABL1 T315M, BCR-ABL1 Y253H/E255K, BCR-ABL1 E255V/T3151, BCR-ABL1 A424T, BCR-ABL1 A337V, BCR-ABL1 P465S, BCR-ABL1 V468F, and BCR-ABL1 I502L were all monoclonal engineered cell lines obtained by transducting Ba/F3 parental cells with the lentivirus plasmids containing WT or corresponding mutated BCR-ABL1.
(§2) The steps of cell viability assay are as follows: • a) Cells in logarithmic growth phase were collected. Cell suspension was prepared and the cells were counted. Concentration of the cells was calculated. • b) The cell suspension was diluted to the required concentration and then added to the middle wells of a 96-well plate, and PBS was added to the edge wells. The wells with no cells and only culture medium were used as blank controls. • c) In addition to the cell plate used for compound analysis, another 96-well plate was prepared as a T0 plate, and 3-6 blank wells and 3-6 cell wells were added. The next day, CTG was used to test the cell viability as the T0 viability value of the cells. • d) The cell plate was incubated at 37 °C in a 5% CO2 incubator overnight. • e) The next day, each concentration of a compound subjected to a gradient dilution was added, and the cell plate was incubated at 37 °C in a 5% CO2 incubator for 72 h. The wells with no compound and only 0.5% DMSO were used as positive controls for cell growth. • f) CTG reagent (CellTiter-Glo kit) was added according to the manufacturer's instructions to test the cell viability value. • g) The plate was read using Biotek cytation3.0 microplate reader and the data were exported. • h) IC50 was calculated using GraphPad Prism 7.0 software.
(§3) The IC50 (half-maximal inhibitory concentration) of the compound was obtained using the following nonlinear fitting formula: Y = Bottom + (Top−Bottom)/(1+10^(∧)((LogIC50−X)*HillSlope)) [formula] • X: Log value of the compound concentration • Y: Inhibition rate (% inhibition) • Top: Maximum response • Bottom: Baseline response • HillSlope: Slope of the curve
(§4) The formula for calculating cell inhibition rate (inhibition rate %) was: [formula]

[2] = molecular target: T1, Ba/F3 BCR-ABL1 WT (Homo sapiens, UniProt P00519+P11274); test: Cell growth inhibitory activity assay (CellTiter-Glo), Ba/F3 BCR-ABL1 WT cells; details: 72 h, CTG cell viability
T1 construct: BCR (N-terminal fusion partner of the oncoprotein); expressed in transfected cells; host or cells: Ba/F3 (lentiviral transduction, monoclonal line)
Protocol: as §1, §2, §3, §4

[3] = molecular target: T2, Ba/F3 BCR-ABL1 T315I (Homo sapiens, UniProt P00519+P11274, T315I); test: Cell growth inhibitory activity assay (CellTiter-Glo), Ba/F3 BCR-ABL1 T315I cells; details: 72 h, CTG cell viability
T2 construct: BCR (N-terminal fusion partner of the oncoprotein); expressed in transfected cells; host or cells: Ba/F3 (lentiviral transduction, monoclonal line)
Protocol: as §1, §2, §3, §4

[4] = test system: Ba/F3 parental cells; test: Cell growth inhibitory activity assay (CellTiter-Glo), Ba/F3 parental cells; details: Mus musculus, BaF3, 72 h, CTG cell viability, read-out: IC50 Ba/F3 BCR-ABL1 Parental
Protocol: as §1, §2, §3, §4

Row | SMILES | IC50 [1] [nM] | IC50 [2] [nM] | IC50 [3] [nM] | IC50 [4] [nM]
1 | C[C@@H]1CN(C)Cc2nc3cc(C(=O)Nc4ccc(OC(F)(F)Cl)cc4)cc(-c4cnc5c(c4)-c4n[nH]cc4C5)c3n21 [T-40, (R)-N-(4-(chlorodifluoromethoxy)phenyl)-6-(2,4-dihydropyrazolo[3',4':3,4]cyclopenta[1,2-b]pyridin-7-yl)-2,4-dimethyl-1,2,3,4-tetrahydrobenzo[4,5]imidazo[1,2-a]pyrazine-8-carboxamide] | ≤ 5 | ≤ 5 | > 1000 | > 1000
2 | C[C@@H]1COCc2nc3cc(C(=O)Nc4ccc(OC(F)(F)Cl)cc4)cc(-c4ccc5c(c4)C(=O)N(C)C5=O)c3n21 [T-62, (R)-N-(4-(chlorodifluoromethoxy)phenyl)-4-methyl-6-(2-methyl-1,3-dioxoisoindolin-5-yl)-3,4-dihydro-1H-benzo[4,5]imidazo[2,1-c][1,4]oxazine-8-carboxamide] | ≤ 5 | 5 to 50 | 50 to 1000 | > 1000
3 | C[C@@H]1COCc2nc3cc(C(=O)Nc4ccc(OC(F)(F)Cl)cc4)cc(-c4cnc5c(c4)-c4nn(-c6nccc(C(F)(F)F)n6)cc4C5)c3n21 [T-72, (R)-N-(4-(chlorodifluoromethoxy)phenyl)-4-methyl-6-(2-(4-(trifluoromethyl)pyrimidin-2-yl)-2,4-dihydropyrazolo[3',4':3,4]cyclopenta[1,2-b]pyridin-7-yl)-3,4-dihydro-1H-benzo[4,5]imidazo[2,1-c][1,4]oxazine-8-carboxamide] | ≤ 5 | ≤ 5 | ≤ 5 | > 1000
4 | CC(C)c1cnc(-n2cc3c(n2)-c2cc(-c4cc(C(=O)Nc5ccc(OC(F)(F)Cl)cc5)cc5nc6n(c45)[C@H](C)COC6)cnc2C3)nc1 [T-101, (R)-N-(4-(chlorodifluoromethoxy)phenyl)-6-(2-(5-isopropyloyrimidin-2-yl)-2,4-dihydropyrazolo[3',4':3,4]cyclooenta[1,2-b]pyridin-7-yl)-4-methyl-3,4-dihydro-1H-benzo[4,5]imidazo[2,1-c][1,4]oxazine-8-carboxamide] | ≤ 5 | ≤ 5 | ≤ 5 | > 1000
5 | Cn1ccc2cnc(-n3cc4c(n3)-c3cc(-c5cc(C(=O)Nc6ccc(OC(F)(F)Cl)cc6)cnc5N5CC[C@@H](F)C5)cnc3C4)nc21 [T-38, (R)-N-(4-(chlorodifluoromethoxy)phenyl)-6-(3-fluoropyrrolidin-1-yl)-5-(2-(7-methyl-7H-pyrrolo[2,3-d]pyrimidin-2-yl)-2,4-dihydropyrazolo[3',4':3,4]cyclopenta[1,2-b]pyridin-7-yl)nicotinamide] | ≤ 5 | ≤ 5 | ≤ 5 | > 1000
6 | CC(C)n1cnc2cc(C(=O)Nc3ccc(OC(F)(F)Cl)cc3)cc(-c3cnc4c(c3)-c3nn(-c5ncccn5)cc3C4)c21 [T-120, N-(4-(chlorodifluoromethoxy)phenyl)-1-isopropyl-7-(2-(pyrimidin-2-yl)-2,4-dihydropyrazolo[3',4':3,4]cyclopenta[1,2-b]pyridin-7-yl)-1H-benzo[d]imidazole-5-carboxamide] | ≤ 5 | ≤ 5 | ≤ 5 | > 1000
7 | C[C@@H]1COCc2nc3cc(C(=O)Nc4ccc(OC(F)(F)Cl)cc4)cc(-c4cnc5c(c4)-c4nn(-c6cccnc6)cc4C5)c3n21 [T-63] | ≤ 5 | ≤ 5 | > 1000 | > 1000
8 | C[C@@H]1COCc2nc3cc(C(=O)Nc4ccc(OC(F)(F)Cl)cc4)cc(-c4cnc5c(c4)-c4c(cnn4-c4ncc6ccccc6n4)C5)c3n21 [T-82-A, (R)-N-(4-(chlorodifluoromethoxy)phenyl)-4-methyl-6-(1-(guinazolin-2-yl)-1,4-dihvdropyrazolo[3',4':3,4]cyclopenta[1,2-b]pyridin-7-yl)-3,4-dihydro-1H-benzo[4,5]imidazo[2,1-c][1,4]oxazine-8-carboxamide] | ≤ 5 | ≤ 5 | 5 to 50 | > 1000

More lines, main results first:

Row | IC50 [1] [nM] | SMILES | IC50 [2] [nM] | IC50 [3] [nM] | IC50 [4] [nM]
9 | ≤ 5 | C[C@@H]1COCc2nc3cc(C(=O)Nc4ccc(OC(F)(F)Cl)cc4)cc(-c4cnc5c(c4)-c4nn(-c6nccc(-c7ccc(F)nc7)n6)cc4C5)c3n21 [T-94, (R)-N-(4-(chlorodifluoromethoxy)phenyl)-6-(2-(4-(6-fluoropyridin-3-yl)pyrimidin-2-yl)-2,4-dihydropyrazolo[3',4':3,4]cyclopenta[1,2-b]pyridin-7-yl)-4-methyl-3,4-dihydro-1H-benzo[4,5]imidazo[2,1-c][1,4]oxazine-8-carboxamide] | ≤ 5 | ≤ 5 | > 1000
10 | ≤ 5 | C[C@@H]1COCc2nc3cc(C(=O)Nc4ccc(OC(F)(F)Cl)cc4)cc(-c4cnc5c(c4)-c4nn(-c6ncc7ccn(C)c7n6)cc4C5)c3n21 [T-85, (R)-N-(4-(chlorodifluoromethoxy)phenyl)-4-methyl-6-(2-(7-methyl-7H-pyrrolo[2,3-d]pyrimidin-2-yl)-2,4-dihydropyrazolo[3',4':3,4]cyclopenta[1,2-b]pyridin-7-yl)-3,4-dihydro-1H-benzo[4,5]imidazo[2,1-c][1,4]oxazine-8-carboxamide] | ≤ 5 | ≤ 5 | > 1000
11 | ≤ 5 | C[C@@H]1COCc2nc3cc(C(=O)Nc4ccc(OC(F)(F)Cl)cc4)cc(-c4cnc5c(c4)C(=O)/C(=C\N(C)C)C5)c3n21 [T-59, (R,Z)-N-(4-(chlorodifluoromethoxy)phenyl)-6-(6-((dimethylamino)methylene)-5-oxo-6,7-dihydro-5H-cyclopenta[b]pyridin-3-yl)-4-methyl-3,4-dihydro-1H-benzo[4,5]imidazo[2,1-c][1,4]oxazine-8-carboxamide] | ≤ 5 | 50 to 1000 | > 1000
12 | ≤ 5 | N#Cc1cnc(-n2cc3c(n2)-c2cc(-c4cc(C(=O)Nc5ccc(OC(F)(F)Cl)cc5)cnc4N4CC[C@@H](F)C4)cnc2C3)nc1 [T-128, (R)-N-(4-(chlorodifluoromethoxy)phenyl)-5-(2-(5-cyanopyrimidin-2-yl)-2,4-dihydropyrazolo[3',4':3,4]cyclopenta[1,2-b]pyridin-7-yl)-6-(3-fluoropyrrolidin-1-yl)nicotinamide] | ≤ 5 | ≤ 5 | > 1000
13 | ≤ 5 | C[C@@H]1COCc2nc3cc(C(=O)Nc4ccc(OC(F)(F)Cl)cc4)cc(-c4cnc5c(c4)-c4nn(-c6nccc(-c7ccc(C#N)nc7)n6)cc4C5)c3n21 [T-99, (R)-N-(4-(chlorodifluoromethoxy)phenyl)-6-(2-(4-(6-cyanopyridin-3-yl)pyrimidin-2-yl)-2,4-dihydropyrazolo[3',4':3,4]cyclopenta[1,2-b]pyridin-7-yl)-4-methyl-3,4-dihydro-1H-benzo[4,5]imidazo[2,1-c][1,4]oxazine-8-carboxamide] | ≤ 5 | ≤ 5 | > 1000
14 | ≤ 5 | O=C(Nc1ccc(OC(F)(F)Cl)cc1)c1cnc(N2CC[C@@H](F)C2)c(-c2cnc3c(c2)-c2nn(-c4ncc5ccccc5n4)cc2C3)c1 [T-29, (R)-N-(4-(chlorodifluoromethoxy)phenyl)-6-(3-fluoropyrrolidin-1-yl)-5-(2-(quinazolin-2-yl)-2,4-dihydropyrazolo[3',4':3,4]cyclopenta[1,2-b]pyridin-7-yl)nicotinamide] | ≤ 5 | 5 to 50 | > 1000
15 | ≤ 5 | O=C(Nc1ccc(OC(F)(F)Cl)cc1)c1cnc(N2CC[C@@H](F)C2)c(-c2cnc3c(c2)-c2nn(-c4ncc(N5CC[C@@H](F)C5)cn4)cc2C3)c1 [T-50, N-(4-(chlorodifluoromethoxy)phenyl)-6-((R)-3-fluoropyrrolidin-1-yl)-5-(2-(5-((R)-3-fluoropyrrolidin-1-yl)pyrimidin-2-yl)-2,4-dihydropyrazolo[3',4':3,4]cyclopenta[1,2-b]pyridin-7-yl)nicotinamide] | ≤ 5 | 5 to 50 | > 1000
